Source: patent US7160685B2, “Diagnostic reagents for human cytomegalovirus and methods of use” (priority 1996, dated 2007)
Where two headings read alike, the source gives them in different places.

How the values were obtained:
[1] = target: HLA A*0202 (Homo sapiens, UniProt P04439, D140Y/D185E/D98H/E176V/E277Q/G131W/G231S/I119L/I121R/I166T/I218V/L180W/L300P/L318F/N151K/N90K/P208A/P217A/Q67R/Q86G/Q94H/R138H/R169H/T345S)
Protocol: (§1) Twelve cell lines were subjected to chromium release assays in which they were pulsed with the 495 peptide (pp65495-503) nonamer, loaded with chromium-51, and incubated with two different HLA A*0201 restricted CTL which recognize the 495 peptide and HCMV. The specific cytotoxicity was calculated and is shown in tabular form below for the 1 μM and 1 nM concentrations of the 495 peptide.

[2] = target: HLA A*0204 (Homo sapiens, UniProt P04439, D140Y/D185E/D98H/E176V/E277Q/G131W/G231S/I119V/I121M/I166T/I218V/L300P/L318F/N151K/N90K/P208A/P217A/Q86G/Q94H/R138H/R169H/T345S)
Protocol: as §1

[3] = target: HLA A*0205 (Homo sapiens, UniProt P04439, D140Y/D185E/D98H/E176V/E277Q/F33Y/G131W/G231S/I119L/I121R/I166T/I218V/L180W/L300P/L318F/N151K/N90K/P208A/P217A/Q67R/Q86G/Q94H/R138H/R169H/T345S)
Protocol: as §1

[4] = target: HLA A*0206 (Homo sapiens, UniProt P04439, D140Y/D185E/D98H/E176V/E277Q/F33Y/G131W/G231S/I119V/I121R/I166T/I218V/L300P/L318F/N151K/N90K/P208A/P217A/Q86G/Q94H/R138H/R169H/T345S)
Protocol: as §1

[5] = target: HLA A*0207 (Homo sapiens, UniProt P04439, D140Y/D185E/D98H/E176V/E277Q/G131W/G231S/I119V/I121R/I166T/I218V/L300P/L318F/N151K/N90K/P208A/P217A/Q86G/Q94H/R138H/R169H/T345S/Y123C)
Protocol: as §1

[6] = target: HLA A*0209 (Homo sapiens, UniProt P04439, A260E/D140Y/D185E/D98H/E176V/E277Q/G131W/G231S/I119V/I121R/I166T/I218V/L300P/L318F/N151K/N90K/P208A/P217A/Q86G/Q94H/R138H/R169H/T345S)
Protocol: as §1

[7] = target: HLA A*0210 (Homo sapiens, UniProt P04439, D140Y/D185E/D98H/E176V/E277Q/F33Y/G231S/I119V/I121R/I166T/I218V/L300P/L318F/N151K/N90K/P208A/P217A/Q86G/Q94H/R138H/R169H/T345S/Y123F)
Protocol: as §1

[8] = target: HLA A*0211 (Homo sapiens, UniProt P04439, D140Y/D185E/E176V/E277Q/G131W/G231S/I119V/I121R/I166T/I218V/L300P/L318F/N151K/N90K/P208A/P217A/Q86G/Q94H/R138H/R169H/T345S/T97I)
Protocol: as §1

[9] = target: HLA A*0217 (Homo sapiens, UniProt P04439, D140Y/D185E/D98H/E176V/E277Q/G131W/G231S/I119L/I121M/I166T/I218V/L300P/L318F/N151K/N90K/P208A/P217A/Q86G/Q94H/R138H/R169H/T345S/Y123F)
Protocol: as §1

[10] = tested on: 495 peptide targets; conditions: after 14 weeks; 495 peptide + PADRE + IFA

CSCC[C@H](NC(=O)[C@@H]1CCCN1C(=O)[C@@H](NC(=O)[C@H](CC(C)C)NC(=O)[C@@H](N)CC(N)=O)C(C)C)C(=O)N[C@H](C(=O)N[C@@H](C)C(=O)N[C@H](C(=O)N[C@H](C(=O)O)C(C)C)[C@@H](C)O)C(C)C [SEQ ID NO:1]
specific cytotoxicity ([1]; A*0202, CTL 3-3F4, 1 nM): − (cytotoxicity less than 15%) | specific cytotoxicity ([1]; A*0202, CTL 3-3F4, 1 μM): + (cytotoxicity greater than 30%) | specific cytotoxicity ([1]; A*0202, CTL VB-57, 1 nM): − (cytotoxicity less than 15%) | specific cytotoxicity ([1]; A*0202, CTL VB-57, 1 μM): + (cytotoxicity greater than 30%) | specific cytotoxicity ([2]; A*0204, CTL 3-3F4, 1 nM): + (cytotoxicity greater than 30%) | specific cytotoxicity ([2]; A*0204, CTL 3-3F4, 1 μM): + (cytotoxicity greater than 30%) | specific cytotoxicity ([2]; A*0204, CTL VB-57, 1 nM): + (cytotoxicity greater than 30%) | specific cytotoxicity ([2]; A*0204, CTL VB-57, 1 μM): + (cytotoxicity greater than 30%) | specific cytotoxicity ([3]; A*0205, CTL 3-3F4, 1 nM): − (cytotoxicity less than 15%) | specific cytotoxicity ([3]; A*0205, CTL 3-3F4, 1 μM): + (cytotoxicity greater than 30%) | specific cytotoxicity ([3]; A*0205, CTL VB-57, 1 nM): + (cytotoxicity greater than 30%) | specific cytotoxicity ([3]; A*0205, CTL VB-57, 1 μM): + (cytotoxicity greater than 30%) | specific cytotoxicity ([4]; A*0206, CTL 3-3F4, 1 nM): + (cytotoxicity greater than 30%) | specific cytotoxicity ([4]; A*0206, CTL 3-3F4, 1 μM): + (cytotoxicity greater than 30%) | specific cytotoxicity ([4]; A*0206, CTL VB-57, 1 nM): + (cytotoxicity greater than 30%) | specific cytotoxicity ([4]; A*0206, CTL VB-57, 1 μM): + (cytotoxicity greater than 30%) | specific cytotoxicity ([5]; A*0207, CTL 3-3F4, 1 nM): + (cytotoxicity greater than 30%) | specific cytotoxicity ([5]; A*0207, CTL 3-3F4, 1 μM): + (cytotoxicity greater than 30%) | specific cytotoxicity ([5]; A*0207, CTL VB-57, 1 nM): + (cytotoxicity greater than 30%) | specific cytotoxicity ([5]; A*0207, CTL VB-57, 1 μM): + (cytotoxicity greater than 30%) | specific cytotoxicity ([6]; A*0209, CTL 3-3F4, 1 nM): − (cytotoxicity less than 15%) | specific cytotoxicity ([6]; A*0209, CTL 3-3F4, 1 μM): + (cytotoxicity greater than 30%) | specific cytotoxicity ([6]; A*0209, CTL VB-57, 1 nM): − (cytotoxicity less than 15%) | specific cytotoxicity ([6]; A*0209, CTL VB-57, 1 μM): + (cytotoxicity greater than 30%) | specific cytotoxicity ([7]; A*0210, CTL 3-3F4, 1 nM): + (cytotoxicity greater than 30%) | specific cytotoxicity ([7]; A*0210, CTL 3-3F4, 1 μM): + (cytotoxicity greater than 30%) | specific cytotoxicity ([7]; A*0210, CTL VB-57, 1 nM): + (cytotoxicity greater than 30%) | specific cytotoxicity ([7]; A*0210, CTL VB-57, 1 μM): + (cytotoxicity greater than 30%) | specific cytotoxicity ([8]; A*0211, CTL 3-3F4, 1 nM): − (cytotoxicity less than 15%) | specific cytotoxicity ([8]; A*0211, CTL 3-3F4, 1 μM): + (cytotoxicity greater than 30%) | specific cytotoxicity ([8]; A*0211, CTL VB-57, 1 μM): + (cytotoxicity greater than 30%) | specific cytotoxicity ([9]; A*0217, CTL 3-3F4, 1 nM): − (cytotoxicity less than 15%) | specific cytotoxicity ([9]; A*0217, CTL 3-3F4, 1 μM): + (cytotoxicity greater than 30%) | specific cytotoxicity ([9]; A*0217, CTL VB-57, 1 nM): + (cytotoxicity greater than 30%) | specific cytotoxicity ([9]; A*0217, CTL VB-57, 1 μM): + (cytotoxicity greater than 30%) | Percent specific cytotoxicity (cytotoxicity of 495 peptide targets—cytotoxicity of p53 targets) [10]: 40%
